This note sets out measurements from US20240150339A1, “Compounds and Their Use as PDE4 Activators” (Mironid Limited, priority 2021, published 2024).

For one experiment, the target named is T1, PDE4C3 (Homo sapiens, UniProt Q08493).
T1 construct: Using Full-Length Human PDE4 Isoforms: Long Forms PDE4D5, PDE4C3, PDE4B1 and Short Form PDE4B2; made in house; host or cells: HEK 293 transfected with pcDNA3.1 or pDEST PDE4 expression vector; cytosol fraction of the lysate by analogy to PDE4D5
The experiment is described as follows: PDE assay, activation of full-length human PDE4C3 long form ([3H]cAMP radio-assay). It is filed as biochemical. Particulars: 30 μM test compound; mean % increase in counts over basal activity. The text has this: (§1) Experiment 1: Measurement of Modulation of Enzyme Activity by PDE4 Long Form Activators of the Present Invention Using Full-Length Human PDE4 Isoforms: Long Forms PDE4D5, PDE4C3, PDE4B1 and Short Form PDE4B2
(§2) (Marchmont, R. J. and Houslay, M. D. Biochem. J. 187: 381-92, 1980)
For transient transfection of exogenous PDE4 long isoforms, HEK 293 cells were transfected with pcDNA3.1 or pDEST™ PDE4 expression vectors using Lipofectamine LTX/Plus reagent (Invitrogen) as outlined by the manufacturer. […]
(§3) HEK-PDE4D5 cells were seeded out in 100 mm plates and incubated at 37° C. in an atmosphere of 5% CO2, 95% air. Cell lysates were prepared using KHEM buffer [50 mM KCl, 10 mM EGTA, 50 mM HEPES (pH 7.2), 1.92 mM MgCl2].
(§4) To prepare the cell lysates, the 100 mm plates containing the cells were placed on ice and washed with ice-cold PBS (phosphate buffered saline, pH 7.4). KHEM buffer (500 μl) was added to the cells. Cells were then scraped off the plate and triturated using a needle (BD Microlance™ 0.8, 40 mm). The lysed cells were then centrifuged at 2000 rpm for 10 minutes to remove cell debris and the supernatant (cell lysate containing recombinant PDE4D5) was transferred to a fresh tube and kept on ice.
(§5) The cell lysate containing recombinant PDE4D5 was transferred into a centrifuge tube and placed into an ultracentrifuge (BECKMAN COULTER) and spun at high speed (100,000 g) for 30 minutes at 4° C. The cytosol fraction was then collected and its protein amount determined using a BCA protein assay.
(§6) PDE assays were performed in thin walled V-bottomed 96-well plates. The assays were performed at a final concentration of 10 mM Tris/5 mM MgCl2 μlus PDE4D5 cell lysate cytosol fraction, containing over-expressed PDE4D5, with and without test compound. The lysate/compound mix were incubated together for 15 min at room temperature on an orbital shaker prior to addition of [^3H] cAMP (final concentration 1 μM [^3H] cAMP; Perkin Elmer) to a final volume of 50 μl per reaction. The reactions were then incubated for 10 minutes at 30° C., terminated by heating for 2 min at 95° C. and allowed to cool. Snake venom (12.5 μl of 1 mg/ml; Crotalus atrox, Sigma) was then added and the plates were agitated and incubated for a further 15 minutes at 30° C. Dowex ion exchange resin (Sigma, chloride form, 200-400 mesh; 200 μl; prepared as a 1:1 Dowex: water stock, thoroughly re-suspended and diluted 2:1 with ethanol) was then added to each well and the plates incubated for 15 min at room temperature on an orbital shaker ensuring sufficient agitation for resin suspension (550 RPM). The reaction mixture was then transferred to a 96 well filter plate (Millipore; […] pore size) and filtered into a receiving 96-well plate to remove the dowex suspension. 30 μL of the filtered solution was then transferred to the wells of an Opti-plate (Perkin Elmer) 96 well assay plate and 120 μl of Microscint 40 scintillation fluid was added. The plate was then placed on an orbital shaker for 10 min at high speed (900 RPM) to mix the sample with scintillation fluid prior to quantitation using a plate based scintillation counter (Top-Count).
(§7) The % increase in counts in the presence of test compound at a particular concentration indicates the % increase in enzyme activity at that concentration.

In another experiment the test system is m-IMCD3 cells. As to the kind of experiment: Inhibition of PGE2-stimulated in vitro cyst formation in 3D culture of m-IMCD3 cells. It is filed as cell-based, mouse. As to conditions: Mus musculus, mIMCD3, 144 h; 10 μM test compound; mean cyst area (%) compared to 100% for (DMSO + PGE2) and 0% for DMSO control; 100 nM PGE2; 6 days; read-out: % Cyst area after incubation with 10 μM test compound. The method, boiled down: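 Mouse m-IMCD3 cells grown in 3D collagen I/Matrigel gels. From 18-24 h after plating, compound (0.1% DMSO) plus 100 nM PGE2 were added and replenished at 2-3 days. After 6 days, imaging gave mean cyst area, scaled to 100% for DMSO+PGE2 and 0% for DMSO alone.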

The next experiment deals with T2, PDE4B2 (Homo sapiens, UniProt Q07343).
T2 construct: the full length human PDE4B2 short isoform; made in house; cytosol fraction of the lysate by analogy to PDE4D5
The experiment is described as follows: PDE assay, activity of full-length human PDE4B2 short form ([3H]cAMP radio-assay). It is filed as biochemical. Particulars: 30 μM test compound; mean % increase in counts over basal activity.
Text: as §1, §2
(§8) For transient transfection of exogenous PDE4 long isoforms, HEK 293 cells were transfected with pcDNA3.1 or pDEST™ PDE4 expression vectors using Lipofectamine LTX/Plus reagent (Invitrogen) as outlined by the manufacturer.
(§9) Where stable cell lines were generated the clonal isolates were expanded to obtain cell lines that stably expressed the full-length human PDE4 long isoforms and the full length human PDE4B2 short isoform. These were called the HEK-PDE4D5, HEK-PDE4B1 and HEK-PDE4B2 cell lines, respectively.
as §3, §4, §5, §6, §7

The next experiment deals with T3, PDE4D5 (Homo sapiens, UniProt Q08499).
T3 construct: Using Full-Length Human PDE4 Isoforms: Long Forms PDE4D5, PDE4C3, PDE4B1 and Short Form PDE4B2; made in house; cytosol fraction of the cell lysate, not purified
As to the kind of experiment: PDE assay, activation of full-length human PDE4D5 long form ([3H]cAMP radio-assay). It is filed as biochemical. As to conditions: 30 μM test compound; mean % increase in counts over basal activity.
Text: as §1, §2, §8, §9, §3, §4, §5, §6, §7

A further experiment deals with MDCK cells. As to the kind of experiment: Inhibition of PGE2-stimulated in vitro cyst formation in 3D culture of MDCK cells. It is filed as cell-based. As to conditions: total cyst area (%) compared to 100% for (DMSO + PGE2) and 0% for DMSO control, 300 nM PGE2. As for the experimental part: HEK 293 and MDCK cells (Public Health England, Cell Culture Collections) were maintained in Dulbecco's Modified Eagle's Medium (DMEM) supplemented with 10% (v/v) fetal bovine serum (FBS) (Seralab), 2 mM L-glutamine and 100 U/ml penicillin streptomycin cocktail (ThermoFisher); termed complete media. Clonal HEK 293 cell lines were maintained in complete media supplemented with 0.6 mg/mL G418 (Enzo Life Sciences). Mouse inner medullary collecting duct (m-IMCD3) cells [American Type Culture Collection (ATCC)] were maintained in media consisting of DMEM/Hams F-12 50/50 Mix (DMEM F12; Corning) supplemented with penicillin streptomycin cocktail (100 U/ml) and FBS (10% v/v) (DMEM F12-10% FBS).
In this study, the well-established three-dimensional (3D) MDCK cell model is used to investigate the effects of PDE4 long form activators on the formation of kidney cysts and evaluate their potential in the treatment of polycystic kidney diseases. 3D cysts are generated based on the method of Mao et al. (Mao, Z., Streets, A. J., Ong, A. C. M. Am. J. Physiol. Renal Physiol. 300 (6): F1375-F1384, 2011), with some modifications.
The assay is conducted in the wells of a 96-well plate culture dish using a total volume of 130 μl of collagen suspension in growth media for each matrix plug per individual well. Rat Collagen I (Fisher Scientific) is prepared on ice by neutralising with 1M NaOH and diluting with a 2×volume of DMEM-2% FBS. 30 μl of collagen/Media mix is added into the well of a 96 well plate and the collagen is set to a gel by incubating at 37° C. for at least 15 minutes. A second layer of 100 μl collagen/Matrigel suspension containing MDCK cells (1.0×10^4 MDCK cells per well) is then layered over the first layer and the collagen/cell mix again set to a gel by incubating at 37° C. 100 μl DMEM growth media is added and cells are incubated at 37° C. for 24 hours. 24 hours after cell seeding, DMEM-2% FBS is added along with the test compound indicated in the presence of 300 nM prostaglandin E2 (PGE2) (Sigma Aldrich) in quadruplicate wells per condition. Media, together with the test compound and PGE2 are replenished every 3 days for 10-15 days.
After 10-15 days of culture z stack images of the wells are captured using the Nikon Eclipse Ti2-E microscope. Nikon General Analysis software is used to measure the following parameters in each well: the mean cyst area, the number of cysts, and the total cyst area.
PDE4 long form activators inhibited in vitro cyst formation in MDCK cells. Data are shown in Table 6 as total cyst area (%), compared to 100% for (DMSO+PGE2) and 0% for DMSO control.

T1 sequence (Q08493 1-680 isoform Q08493-3): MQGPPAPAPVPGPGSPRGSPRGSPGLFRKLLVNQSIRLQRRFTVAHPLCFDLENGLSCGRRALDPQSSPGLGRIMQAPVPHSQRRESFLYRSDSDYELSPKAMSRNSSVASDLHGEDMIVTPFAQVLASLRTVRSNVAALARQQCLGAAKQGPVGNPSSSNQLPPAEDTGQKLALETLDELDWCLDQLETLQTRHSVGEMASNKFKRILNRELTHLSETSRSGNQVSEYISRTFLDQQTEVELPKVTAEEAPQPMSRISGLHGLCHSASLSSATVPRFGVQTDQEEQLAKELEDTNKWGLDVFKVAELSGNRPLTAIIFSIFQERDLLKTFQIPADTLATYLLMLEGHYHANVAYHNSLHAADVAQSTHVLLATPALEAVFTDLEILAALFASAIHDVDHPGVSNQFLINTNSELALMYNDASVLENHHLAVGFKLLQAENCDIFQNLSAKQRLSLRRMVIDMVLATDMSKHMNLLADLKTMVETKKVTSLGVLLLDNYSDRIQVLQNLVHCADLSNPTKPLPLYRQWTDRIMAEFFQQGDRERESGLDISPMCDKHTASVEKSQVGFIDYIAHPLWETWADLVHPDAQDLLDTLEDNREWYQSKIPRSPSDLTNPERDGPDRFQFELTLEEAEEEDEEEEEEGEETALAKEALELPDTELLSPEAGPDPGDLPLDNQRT
T2 sequence (Q07343 1-564 isoform Q07343-2): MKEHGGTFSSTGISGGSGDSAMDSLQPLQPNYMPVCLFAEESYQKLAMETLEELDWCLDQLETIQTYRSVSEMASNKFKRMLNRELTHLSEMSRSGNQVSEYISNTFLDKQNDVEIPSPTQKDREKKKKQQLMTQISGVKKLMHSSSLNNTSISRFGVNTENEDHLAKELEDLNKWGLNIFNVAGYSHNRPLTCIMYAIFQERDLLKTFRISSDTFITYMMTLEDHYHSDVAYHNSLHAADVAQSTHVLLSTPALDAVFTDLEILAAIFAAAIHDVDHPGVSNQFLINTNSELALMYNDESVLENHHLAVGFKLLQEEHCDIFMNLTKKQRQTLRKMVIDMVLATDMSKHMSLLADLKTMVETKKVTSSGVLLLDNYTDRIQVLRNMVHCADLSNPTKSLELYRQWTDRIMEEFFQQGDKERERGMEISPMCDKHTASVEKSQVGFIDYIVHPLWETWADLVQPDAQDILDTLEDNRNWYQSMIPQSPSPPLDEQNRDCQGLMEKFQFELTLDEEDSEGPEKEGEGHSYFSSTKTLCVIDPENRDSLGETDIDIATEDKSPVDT
T3 sequence (Q08499 1-745 isoform Q08499-6): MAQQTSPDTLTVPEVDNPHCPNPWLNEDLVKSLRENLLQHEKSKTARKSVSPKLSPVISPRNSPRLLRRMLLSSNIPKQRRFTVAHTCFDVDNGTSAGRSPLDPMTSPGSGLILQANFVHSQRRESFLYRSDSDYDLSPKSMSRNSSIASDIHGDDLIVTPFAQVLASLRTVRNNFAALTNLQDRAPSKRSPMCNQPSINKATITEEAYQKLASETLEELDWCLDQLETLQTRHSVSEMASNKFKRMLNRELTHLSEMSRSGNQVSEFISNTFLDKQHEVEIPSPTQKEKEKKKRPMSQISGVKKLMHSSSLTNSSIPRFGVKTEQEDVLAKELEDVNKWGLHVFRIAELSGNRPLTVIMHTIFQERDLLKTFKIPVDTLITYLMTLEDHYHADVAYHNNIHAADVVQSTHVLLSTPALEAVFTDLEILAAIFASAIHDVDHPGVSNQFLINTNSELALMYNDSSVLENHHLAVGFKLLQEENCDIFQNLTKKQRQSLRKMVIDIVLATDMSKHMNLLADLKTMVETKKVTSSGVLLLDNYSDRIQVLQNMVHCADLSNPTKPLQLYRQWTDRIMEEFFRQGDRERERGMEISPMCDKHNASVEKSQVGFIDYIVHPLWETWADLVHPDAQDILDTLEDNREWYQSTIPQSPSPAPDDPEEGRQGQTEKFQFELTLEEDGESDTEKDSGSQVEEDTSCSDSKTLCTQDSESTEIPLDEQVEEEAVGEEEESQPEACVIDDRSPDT

Regarding `Cc1ncccc1-c1nc2ccc(C(=O)N[C@H]3CCCc4ccccc43)cc2s1` [Example 6, (S)-2-(2-methylpyridin-3-yl)-N-(1,2,3,4-tetrahydronaphthalen-1-yl)benzo[d]thiazole-6-carboxamide], the activation at 30 µM at PDE4C3 amounted to 38%. Also, the activity at 10 µM in the experiment on m-IMCD3 cells came out at 7%.

Turning to `O=C(N[C@H]1CCOc2ccccc21)c1ccc2nc(-c3cccnc3)sc2c1` [Example 9, (S)-N-(chroman-4-yl)-2-(pyridin-3-yl)benzo[d]thiazole-6-carboxamide], the “% increase in PDE4B2 activity at 30 μM*” value on PDE4B2 was found to be 3%. On PDE4D5, the activation at 30 µM was 81%.

Turning to `Cc1cncc(-c2nc3ccc(C(=O)NCc4ccc(F)cc4)cc3s2)c1` [Example 32, N-(4-fluorobenzyl)-2-(5-methylpyridin-3-yl)benzo[d]thiazole-6-carboxamide], the activation at 30 µM on PDE4C3 amounted to 99%. For the same compound, in the experiment with m-IMCD3 cells, the activity at 10 µM was determined as 18%.

Consider `Cc1ccncc1-c1nc2ccc(C(=O)N[C@H]3CCCc4ccccc43)cc2s1` [Example 50, (S)-2-(4-methylpyridin-3-yl)-N-(1,2,3,4-tetrahydronaphthalen-1-yl)benzo[d]thiazole-6-carboxamide], for which the activation at 30 µM on PDE4C3 stood at 58%; on PDE4D5, 51%. In addition, the activity at 10 µM in the experiment with m-IMCD3 cells turned out to be 11%.

For `Cc1ccncc1-c1nc2ccc(C(=O)N[C@H]3CCOc4ccccc43)cc2s1` [Example 51, (S)-N-(chroman-4-yl)-2-(4-methylpyridin-3-yl)benzo[d]thiazole-6-carboxamide], the activation at 30 µM at PDE4C3 turned out to be 112%; on PDE4D5, 87%. The activity at 10 µM in the experiment with m-IMCD3 cells is -15%.

In the case of `CCN1CCC(c2nc3c(C)cc(C(=O)N[C@H]4CCOc5ccccc54)cc3s2)CC1` [Example 187, (S)-N-(chroman-4-yl)-2-(1-ethylpiperidin-4-yl)-4-methylbenzo[d]thiazole-6-carboxamide], the “% increase in PDE4B2 activity at 30 μM*” value on PDE4B2 was determined as 9%. This compound gave an activation at 30 µM at PDE4D5 of 31%.

`CCN1CCN(c2nc3c(C)cc(C(=O)N[C@H]4CCOc5ccccc54)cc3s2)CC1` [Example 212, (S)-N-(chroman-4-yl)-2-(4-ethylpiperazin-1-yl)-4-methylbenzo[d]thiazole-6-carboxamide]: at PDE4B2, the “% increase in PDE4B2 activity at 30 μM*” value was −3%. At PDE4D5, this compound displayed an activation at 30 µM of 30%.

With `CCN1CCN(c2nc3cc(C)c(C(=O)N[C@H]4CCOc5ccccc54)cc3s2)CC1` [Example 216, (S)-N-(chroman-4-yl)-2-(4-ethylpiperazin-1-yl)-5-methylbenzo[d]thiazole-6-carboxamide], the activity at 10 µM in the experiment on m-IMCD3 cells was -5%. In addition, on PDE4B2, the “% increase in PDE4B2 activity at 30 μM*” value is −2%. Further, on PDE4D5, the activation at 30 µM is 88%.

As to `CCN1CCN(c2nc3ccc(C(=O)N[C@H]4CCOc5ccccc54)c(C)c3s2)CC1` [Example 220, (S)-N-(chroman-4-yl)-2-(4-ethylpiperazin-1-yl)-7-methylbenzo[d]thiazole-6-carboxamide], the “% increase in PDE4B2 activity at 30 μM*” value at PDE4B2 amounted to 0%. Also, at PDE4D5, the activation at 30 µM turned out to be 36%.

For `COc1c(C(=O)NC2CCCC2)ccc2nc(N3C4CCC3CNC4)sc12` [Example 236, 2-(3,8-diazabicyclo[3.2.1]octan-8-yl)-N-cyclopentyl-7-methoxybenzo[d]thiazole-6-carboxamide], in the experiment with MDCK cells, the “% Cyst area after incubation with 1 μM test compound” value (“% Cyst area after incubation” for short) came to 20%.

As to `CC(C)NC(=O)c1cc(C#N)c2nc(N3C4CCC3CNC4)sc2c1` [Example 238, 2-(3,8-diazabicyclo[3.2.1]octan-8-yl)-4-cyano-N-isopropylbenzo[d]thiazole-6-carboxamide], the “% Cyst area after incubation” value with MDCK cells is 24%.

With `O=C(NC1CCC(F)(F)CC1)c1ccc2nc(N3CC4CCC(C3)N4)sc2c1` [Example 245, 2-(3,8-diazabicyclo[3.2.1]octan-3-yl)-N-(4,4-difluorocyclohexyl)-benzo[d]thiazole-6-carboxamide], the “% Cyst area after incubation” value in the experiment with MDCK cells is listed as 4%.

For `O=C(NC1CCC(F)(F)CC1)c1ccc2nc(N3CC4CCC(C3)N4CCO)sc2c1` [Example 247, N-(4,4-difluorocyclohexyl)-2-(8-(2-hydroxyethyl)-3,8-diazabicyclo[3.2.1]octan-3-yl)benzo[d]thiazole-6-carboxamide], in the experiment with MDCK cells, the “% Cyst area after incubation” value is reported as 1%.

On to `CCN1CC2CCC(C1)N2c1nc2ccc(S(=O)(=O)NC3CCC(F)(F)CC3)cc2s1` [Example 290, N-(4,4-difluorocyclohexyl)-2-(3-ethyl-3,8-diazabicyclo[3.2.1]octan-8-yl)benzo[d]thiazole-6-sulfonamide], for which the activity at 10 µM with m-IMCD3 cells was determined as 16%. Further, at PDE4B2, the “% increase in PDE4B2 activity at 30 μM*” value is 11%. The compound also registered an activation at 30 µM on PDE4D5 of 47%.
